Measured values taken from article PMC12136037, “Type II kinase inhibitors that target Parkinson’s disease–associated LRRK2” (Science Advances, 2025).

How the values were obtained:
Assay in all cases: DSF 100 kinase selectivity screen;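 also: compound tested at 20 µM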
Format in all cases: binding
[1] = biological target: T1, ~100 representative kinases (Homo sapiens, UniProt O15264); details: protein MAPK13; average of three replicates
T1 construct: Recombinant protein kinase domains with a concentration of 2 μM
T1 sequence (O15264 1-365): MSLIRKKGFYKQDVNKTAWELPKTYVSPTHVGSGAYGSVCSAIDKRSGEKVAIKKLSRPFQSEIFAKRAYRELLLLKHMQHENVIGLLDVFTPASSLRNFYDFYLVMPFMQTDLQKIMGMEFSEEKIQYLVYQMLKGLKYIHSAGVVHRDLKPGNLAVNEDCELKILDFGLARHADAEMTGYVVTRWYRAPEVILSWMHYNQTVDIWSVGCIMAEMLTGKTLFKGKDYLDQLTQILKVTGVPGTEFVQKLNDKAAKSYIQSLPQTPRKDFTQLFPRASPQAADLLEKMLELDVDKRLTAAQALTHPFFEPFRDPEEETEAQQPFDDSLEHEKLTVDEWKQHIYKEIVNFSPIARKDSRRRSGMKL
Summary of the method: (§1)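 Each kinase domain, at 2 μM, is mixed with 20 μM test compound and SYPRO Orange in Hepes (20 mM, pH 7.5) with 500 mM NaCl. Temperature is then raised at 3°C/min and fluorescence-monitored unfolding yields the melting temperature change, ΔTm in degrees Celsius.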

[2] = biological target: T2, ~100 representative kinases (Homo sapiens, UniProt O95747); details: protein OSR1; average of three replicates
T2 construct: Recombinant protein kinase domains with a concentration of 2 μM
Summary of the method: as §1

[3] = biological target: T3, ~100 representative kinases (Homo sapiens, UniProt P07332); details: protein FESA; average of three replicates
T3 construct: Recombinant protein kinase domains with a concentration of 2 μM
Summary of the method: as §1

[4] = biological target: T4, ~100 representative kinases (Homo sapiens, UniProt P12931); details: Protein SRC; DSF; average of three replicates
T4 construct: Recombinant protein kinase domains with a concentration of 2 μM
Summary of the method: as §1

[5] = biological target: T5, ~100 representative kinases (Homo sapiens, UniProt P19784); details: Protein CK2A2; average of three replicates
T5 construct: Recombinant protein kinase domains with a concentration of 2 μM
T5 sequence (P19784 whole entry, the tested form may be a part): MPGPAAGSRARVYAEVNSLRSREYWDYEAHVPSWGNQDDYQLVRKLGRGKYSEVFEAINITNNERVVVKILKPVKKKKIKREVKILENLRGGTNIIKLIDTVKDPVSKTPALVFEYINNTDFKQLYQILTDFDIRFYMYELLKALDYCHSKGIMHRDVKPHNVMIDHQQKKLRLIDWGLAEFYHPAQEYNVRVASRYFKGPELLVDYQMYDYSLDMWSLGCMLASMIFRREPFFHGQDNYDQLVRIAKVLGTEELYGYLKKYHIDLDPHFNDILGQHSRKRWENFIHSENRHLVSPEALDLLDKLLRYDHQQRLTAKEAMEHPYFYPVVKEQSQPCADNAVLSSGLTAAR
Summary of the method: as §1

[6] = biological target: T6, ~100 representative kinases (Homo sapiens, UniProt P21675); details: Protein TAF1; DSF; average of three replicates
T6 construct: Recombinant protein kinase domains with a concentration of 2 μM
T6 sequence (P21675 whole entry, the tested form may be a part): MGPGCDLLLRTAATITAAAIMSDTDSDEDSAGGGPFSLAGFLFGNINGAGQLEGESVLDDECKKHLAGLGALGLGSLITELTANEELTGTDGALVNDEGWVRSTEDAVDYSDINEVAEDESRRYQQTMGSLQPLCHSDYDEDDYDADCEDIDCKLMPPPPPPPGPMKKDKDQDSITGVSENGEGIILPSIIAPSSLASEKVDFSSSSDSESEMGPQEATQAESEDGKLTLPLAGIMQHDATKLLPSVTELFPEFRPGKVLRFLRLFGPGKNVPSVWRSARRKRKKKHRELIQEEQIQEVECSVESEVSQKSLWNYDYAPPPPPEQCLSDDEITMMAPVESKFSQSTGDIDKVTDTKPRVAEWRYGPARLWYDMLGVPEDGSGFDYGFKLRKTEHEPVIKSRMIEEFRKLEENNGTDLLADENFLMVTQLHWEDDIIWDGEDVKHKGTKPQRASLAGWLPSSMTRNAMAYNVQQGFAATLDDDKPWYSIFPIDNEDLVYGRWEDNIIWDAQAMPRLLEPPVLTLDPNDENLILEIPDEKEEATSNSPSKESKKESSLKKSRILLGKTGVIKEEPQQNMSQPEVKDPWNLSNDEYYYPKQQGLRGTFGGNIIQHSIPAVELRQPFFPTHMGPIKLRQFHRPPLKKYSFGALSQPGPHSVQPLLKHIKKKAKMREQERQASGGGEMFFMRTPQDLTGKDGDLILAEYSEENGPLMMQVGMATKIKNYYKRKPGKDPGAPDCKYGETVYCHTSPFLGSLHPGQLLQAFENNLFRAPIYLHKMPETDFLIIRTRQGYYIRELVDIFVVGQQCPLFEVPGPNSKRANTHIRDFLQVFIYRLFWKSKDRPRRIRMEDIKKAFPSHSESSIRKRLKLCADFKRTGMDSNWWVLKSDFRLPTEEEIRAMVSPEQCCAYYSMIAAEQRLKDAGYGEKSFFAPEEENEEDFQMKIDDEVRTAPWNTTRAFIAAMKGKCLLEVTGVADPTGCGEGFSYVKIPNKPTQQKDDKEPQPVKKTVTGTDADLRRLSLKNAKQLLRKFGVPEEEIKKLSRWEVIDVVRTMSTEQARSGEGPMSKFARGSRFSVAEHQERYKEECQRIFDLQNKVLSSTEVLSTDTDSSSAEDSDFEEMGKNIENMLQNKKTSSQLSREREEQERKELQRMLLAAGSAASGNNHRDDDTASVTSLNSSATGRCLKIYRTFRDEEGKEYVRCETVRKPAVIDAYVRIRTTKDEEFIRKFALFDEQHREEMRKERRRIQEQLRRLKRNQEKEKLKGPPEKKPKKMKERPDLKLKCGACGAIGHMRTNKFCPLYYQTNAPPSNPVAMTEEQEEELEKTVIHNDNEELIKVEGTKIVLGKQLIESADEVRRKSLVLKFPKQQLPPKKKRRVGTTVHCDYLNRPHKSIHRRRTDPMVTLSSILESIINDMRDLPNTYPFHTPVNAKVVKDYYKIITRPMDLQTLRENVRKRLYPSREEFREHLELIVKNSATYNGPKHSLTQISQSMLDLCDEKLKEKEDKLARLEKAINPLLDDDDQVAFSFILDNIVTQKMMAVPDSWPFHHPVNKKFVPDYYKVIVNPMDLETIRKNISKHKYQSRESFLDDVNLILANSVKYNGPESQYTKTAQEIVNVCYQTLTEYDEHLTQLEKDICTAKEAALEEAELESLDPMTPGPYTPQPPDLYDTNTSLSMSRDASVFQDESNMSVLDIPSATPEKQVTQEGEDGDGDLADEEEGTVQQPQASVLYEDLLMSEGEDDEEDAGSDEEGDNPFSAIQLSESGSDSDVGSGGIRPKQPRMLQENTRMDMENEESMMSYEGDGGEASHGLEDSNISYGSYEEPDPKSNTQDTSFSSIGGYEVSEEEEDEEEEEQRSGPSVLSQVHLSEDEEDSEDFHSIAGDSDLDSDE
Summary of the method: as §1

[7] = biological target: T7, ~100 representative kinases (Homo sapiens, UniProt P21802); details: protein FGFR2; average of three replicates
T7 construct: Recombinant protein kinase domains with a concentration of 2 μM
T7 sequence (P21802 22-821): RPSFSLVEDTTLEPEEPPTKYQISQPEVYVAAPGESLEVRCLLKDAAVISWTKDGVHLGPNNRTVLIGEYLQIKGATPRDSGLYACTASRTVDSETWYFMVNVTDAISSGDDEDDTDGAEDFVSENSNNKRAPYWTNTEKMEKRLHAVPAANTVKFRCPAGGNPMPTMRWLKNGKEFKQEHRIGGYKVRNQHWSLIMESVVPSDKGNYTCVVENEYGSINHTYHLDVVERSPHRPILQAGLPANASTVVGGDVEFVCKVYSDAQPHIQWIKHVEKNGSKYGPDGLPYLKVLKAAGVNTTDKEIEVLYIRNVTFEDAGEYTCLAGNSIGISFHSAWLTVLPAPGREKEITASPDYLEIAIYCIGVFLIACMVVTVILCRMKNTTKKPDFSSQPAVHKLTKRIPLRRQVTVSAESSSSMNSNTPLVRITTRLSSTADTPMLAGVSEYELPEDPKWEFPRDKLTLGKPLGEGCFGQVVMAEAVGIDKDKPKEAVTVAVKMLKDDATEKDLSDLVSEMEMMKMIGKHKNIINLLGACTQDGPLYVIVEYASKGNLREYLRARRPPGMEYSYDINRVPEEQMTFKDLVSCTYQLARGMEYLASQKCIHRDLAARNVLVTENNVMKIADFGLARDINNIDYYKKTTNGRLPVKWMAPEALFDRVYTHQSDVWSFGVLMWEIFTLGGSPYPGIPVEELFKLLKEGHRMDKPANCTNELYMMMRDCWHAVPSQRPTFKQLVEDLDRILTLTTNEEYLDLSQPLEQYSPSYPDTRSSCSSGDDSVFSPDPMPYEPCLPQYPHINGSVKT
Summary of the method: as §1

[8] = biological target: T8, ~100 representative kinases (Homo sapiens, UniProt P33981); details: Protein TTK; DSF; average of three replicates
T8 construct: Recombinant protein kinase domains with a concentration of 2 μM
T8 sequence (P33981 1-857): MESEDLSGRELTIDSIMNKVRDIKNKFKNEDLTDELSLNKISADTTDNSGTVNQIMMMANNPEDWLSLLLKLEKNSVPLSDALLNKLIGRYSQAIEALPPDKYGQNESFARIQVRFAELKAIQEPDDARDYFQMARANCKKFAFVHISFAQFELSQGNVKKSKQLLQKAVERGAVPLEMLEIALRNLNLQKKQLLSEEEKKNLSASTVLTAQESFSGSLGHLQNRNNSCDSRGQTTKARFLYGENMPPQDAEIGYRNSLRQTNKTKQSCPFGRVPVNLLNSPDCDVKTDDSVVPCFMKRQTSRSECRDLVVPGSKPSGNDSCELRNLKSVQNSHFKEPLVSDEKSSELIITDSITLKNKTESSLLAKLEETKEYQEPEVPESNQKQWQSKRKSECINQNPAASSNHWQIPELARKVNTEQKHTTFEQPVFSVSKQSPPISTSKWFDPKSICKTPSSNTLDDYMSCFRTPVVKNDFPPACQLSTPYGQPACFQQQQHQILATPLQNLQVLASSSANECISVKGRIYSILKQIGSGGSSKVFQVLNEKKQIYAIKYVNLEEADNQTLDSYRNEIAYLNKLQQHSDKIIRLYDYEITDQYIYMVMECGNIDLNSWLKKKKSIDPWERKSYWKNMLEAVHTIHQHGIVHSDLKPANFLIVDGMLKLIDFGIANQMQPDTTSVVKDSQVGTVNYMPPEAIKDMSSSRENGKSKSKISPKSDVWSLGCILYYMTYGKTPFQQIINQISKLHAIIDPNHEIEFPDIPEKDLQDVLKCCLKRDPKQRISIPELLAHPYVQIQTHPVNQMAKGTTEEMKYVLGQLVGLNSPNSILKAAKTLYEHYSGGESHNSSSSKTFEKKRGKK
Summary of the method: as §1

[9] = biological target: T9, ~100 representative kinases (Homo sapiens, UniProt P45984); details: protein MAPK9; average of three replicates
T9 construct: Recombinant protein kinase domains with a concentration of 2 μM
T9 sequence (P45984 whole entry, the tested form may be a part): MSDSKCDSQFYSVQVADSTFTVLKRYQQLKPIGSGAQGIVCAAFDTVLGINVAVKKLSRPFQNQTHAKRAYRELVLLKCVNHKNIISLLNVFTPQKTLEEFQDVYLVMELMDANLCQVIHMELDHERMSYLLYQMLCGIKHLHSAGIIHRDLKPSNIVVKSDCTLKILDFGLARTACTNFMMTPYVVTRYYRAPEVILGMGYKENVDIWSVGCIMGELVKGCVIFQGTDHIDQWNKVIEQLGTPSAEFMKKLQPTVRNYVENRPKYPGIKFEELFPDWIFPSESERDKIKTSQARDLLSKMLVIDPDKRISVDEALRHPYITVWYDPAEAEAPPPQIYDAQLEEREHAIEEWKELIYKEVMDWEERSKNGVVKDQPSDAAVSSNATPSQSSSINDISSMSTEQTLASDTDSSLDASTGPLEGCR
Summary of the method: as §1

[10] = biological target: T10, ~100 representative kinases (Homo sapiens, UniProt P54764); details: Protein EPHA4; average of three replicates
T10 construct: Recombinant protein kinase domains with a concentration of 2 μM
T10 sequence (P54764 20-986): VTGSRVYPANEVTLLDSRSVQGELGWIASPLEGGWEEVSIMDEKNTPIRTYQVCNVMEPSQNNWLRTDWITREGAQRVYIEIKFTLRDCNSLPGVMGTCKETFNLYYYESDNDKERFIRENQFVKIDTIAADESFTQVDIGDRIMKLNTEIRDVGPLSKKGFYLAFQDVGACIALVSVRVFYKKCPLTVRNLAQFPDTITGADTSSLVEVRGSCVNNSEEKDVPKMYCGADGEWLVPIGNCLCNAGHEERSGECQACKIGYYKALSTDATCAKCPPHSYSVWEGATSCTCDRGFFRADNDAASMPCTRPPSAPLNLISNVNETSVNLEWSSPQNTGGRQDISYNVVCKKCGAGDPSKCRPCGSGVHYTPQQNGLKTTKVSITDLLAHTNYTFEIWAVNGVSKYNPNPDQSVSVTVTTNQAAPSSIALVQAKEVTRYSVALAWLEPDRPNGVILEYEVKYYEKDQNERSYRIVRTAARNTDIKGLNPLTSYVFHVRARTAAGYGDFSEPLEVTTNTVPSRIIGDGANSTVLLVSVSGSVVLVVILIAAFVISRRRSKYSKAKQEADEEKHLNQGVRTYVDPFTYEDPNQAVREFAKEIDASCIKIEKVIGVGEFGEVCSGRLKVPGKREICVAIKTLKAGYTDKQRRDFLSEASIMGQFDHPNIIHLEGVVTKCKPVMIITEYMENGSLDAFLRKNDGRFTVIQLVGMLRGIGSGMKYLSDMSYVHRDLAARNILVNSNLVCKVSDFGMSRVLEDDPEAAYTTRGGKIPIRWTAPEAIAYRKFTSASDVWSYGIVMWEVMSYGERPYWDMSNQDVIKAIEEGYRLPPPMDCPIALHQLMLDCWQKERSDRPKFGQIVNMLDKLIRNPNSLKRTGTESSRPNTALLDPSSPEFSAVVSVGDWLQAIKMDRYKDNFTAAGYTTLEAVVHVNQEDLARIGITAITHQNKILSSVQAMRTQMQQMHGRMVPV
Summary of the method: as §1

[11] = biological target: T11, ~100 representative kinases (Homo sapiens, UniProt Q13554); details: Protein CAMK2B; average of three replicates
T11 construct: Recombinant protein kinase domains with a concentration of 2 μM
T11 sequence (Q13554 whole entry, the tested form may be a part): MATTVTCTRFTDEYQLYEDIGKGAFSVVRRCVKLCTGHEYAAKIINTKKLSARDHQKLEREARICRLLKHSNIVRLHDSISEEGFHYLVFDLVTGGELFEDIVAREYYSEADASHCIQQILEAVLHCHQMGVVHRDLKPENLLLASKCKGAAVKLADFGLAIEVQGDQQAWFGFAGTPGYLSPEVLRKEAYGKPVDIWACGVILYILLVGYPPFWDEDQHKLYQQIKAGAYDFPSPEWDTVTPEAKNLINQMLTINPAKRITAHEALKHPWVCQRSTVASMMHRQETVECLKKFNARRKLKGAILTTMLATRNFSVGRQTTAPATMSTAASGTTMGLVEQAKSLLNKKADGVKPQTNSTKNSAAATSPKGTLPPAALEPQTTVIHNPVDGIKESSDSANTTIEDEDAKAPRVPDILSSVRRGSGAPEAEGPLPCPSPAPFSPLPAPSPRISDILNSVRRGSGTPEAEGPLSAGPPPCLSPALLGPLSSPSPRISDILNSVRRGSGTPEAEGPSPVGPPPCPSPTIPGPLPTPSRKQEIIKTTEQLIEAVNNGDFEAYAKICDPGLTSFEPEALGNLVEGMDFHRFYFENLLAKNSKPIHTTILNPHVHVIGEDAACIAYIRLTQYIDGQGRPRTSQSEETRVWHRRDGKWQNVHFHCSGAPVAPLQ
Summary of the method: as §1

Structure (SMILES)	dTm [1] [K]	dTm [2] [K]	dTm [3] [K]	dTm [4] [K]	dTm [5] [K]	dTm [6] [K]	dTm [7] [K]	dTm [8] [K]	dTm [9] [K]	dTm [10] [K]	dTm [11] [K]
O=C(Nc1ccc(Cl)cc1)C1(C(=O)Nc2cccc(-c3c[nH]c4ncnc(N5CCOCC5)c34)c2)CC1 [Compound 13]	11.74	2.33	8.66	1.70	9.70	1.29	3.14	6.50	3.96	4.09	1.60
COc1cc(C(=O)N2CCOCC2)c(F)cc1Nc1nc(N(C)C)c2c(Cl)c[nH]c2n1 [Compound 36]	0.85	1.88	2.67	0.60	1.00	1.23	-0.36	10.39	2.71	-0.69	2.02
COc1ccc(NC(=O)C2(C(=O)Nc3cccc(-c4c[nH]c5ncnc(N6CCOCC6)c45)c3)CC2)cc1 [Compound 16]	5.41	0.35	3.37	0.65	4.77	0.37	1.54	3.48	1.53	-0.05	0.11
COc1cc(S(C)(=O)=O)ccc1Nc1nc(N(C)C)c2c(Cl)c[nH]c2n1 [Compound 37]	0.37	1.40	2.13	0.09	1.16	1.43	-0.14	7.87	0.96	-0.37	-0.66
Cc1ccc(-n2nc(C(C)(C)C)cc2NC(=O)Nc2cccc(-c3c[nH]c4ncnc(N5CCOCC5)c34)c2)cc1 [Compound 29]	18.71	0.52	0.00	5.51	-2.10	-10.70	-0.19	4.46	-1.39	6.97	-0.15
C[C@@H]1CN(c2cc(-c3n[nH]c4ccc(OC5(C)CC5)cc34)ncn2)C[C@H](C)O1 [MLi2]	0.32	0.07	1.83	0.28	-0.31	-0.34	-0.06	5.63	0.30	-0.15	1.04
Cc1ccc(C(=O)Nc2ccc(CN3CCN(C)CC3)c(C(F)(F)F)c2)cc1C#Cc1c[nH]c2ncnc(N3CCOCC3)c12 [Compound 1]	4.74	1.78	3.82	1.15	-0.08	0.36	4.16	0.00	5.51	4.12	0.49
CNC(=O)c1cc(Oc2ccc(NC(=O)Nc3cc(C(C)(C)C)nn3-c3ccc4ncccc4c3)c(F)c2)ccn1 [Rebastinib, reference compound]	13.29	1.75	7.16	10.52	1.06	-2.54	10.35	8.07	9.78	15.87	0.87

Further lines, results first:

dTm [1] [K]	dTm [2] [K]	dTm [3] [K]	dTm [4] [K]	dTm [5] [K]	dTm [6] [K]	dTm [7] [K]	dTm [8] [K]	dTm [9] [K]	dTm [10] [K]	dTm [11] [K]	Structure (SMILES)
9.07	1.54	6.21	1.11	5.87	0.34	1.78	4.57	2.56	2.64	0.96	Cc1ccc(NC(=O)C2(C(=O)Nc3cccc(-c4c[nH]c5ncnc(N6CCOCC6)c45)c3)CC2)cc1 [Compound 14]
9.94	1.55	7.20	0.49	6.40	0.23	2.43	6.94	2.87	2.10	0.69	O=C(Nc1ccc(F)cc1)C1(C(=O)Nc2cccc(-c3c[nH]c4ncnc(N5CCOCC5)c34)c2)CC1 [Compound 2]
6.95	0.69	4.33	0.70	-0.63	0.30	2.08	2.46	2.21	0.68	0.23	Cc1cc(F)ccc1NC(=O)C1(C(=O)Nc2cccc(-c3c[nH]c4ncnc(N5CCOCC5)c34)c2)CC1 [Compound 24]
4.55	-0.0329	3.48	-0.13	4.72	-1.20	3.74	6.98	4.90	2.01	1.60	O=C(Nc1cccc(-c2c[nH]c3ncnc(N4CCOCC4)c23)c1)C1(C(=O)Nc2ccc(F)c(Br)c2F)CC1 [Compound 26]
8.81	0.69	4.64	1.22	1.24	1.78	2.28	6.77	4.14	2.16	1.13	CCc1ccc(NC(=O)C2(C(=O)Nc3cccc(-c4c[nH]c5ncnc(N6CCOCC6)c45)c3)CC2)cc1 [Compound 15]
9.50	2.20	5.87	1.01	8.40	0.99	2.62	6.18	2.95	1.24	1.54	O=C(Nc1cccc(-c2c[nH]c3ncnc(N4CCOCC4)c23)c1)C1(C(=O)Nc2ccc(F)c(F)c2)CC1 [Compound 17]
11.57	1.79	6.34	0.91	3.16	0.37	2.99	7.84	3.60	0.24	1.15	COc1cc(NC(=O)C2(C(=O)Nc3cccc(-c4c[nH]c5ncnc(N6CCOCC6)c45)c3)CC2)ccc1F [Compound 21]
